Results from patent US12239711B2, “Cereblon ligands and bifunctional compounds comprising the same” (Arvinas Operations, Inc., priority 2014, dated 2025).

How the values were obtained:
BRaf = molecular target: T1, BRaf (Homo sapiens, UniProt P15056, V600E); test: BRaf protein degradation assay in A375 cells (western blot / In-Cell Western); format: cell-based; conditions: for Dmax: A-375
T1 construct: endogenous in cells; host or cells: A375 cells
Procedure: 5. BRaf Protein In Vitro Degradation Assay (A375 Cells) of Table 7
A375 cells were cultured in ATCC DMEM+10% FBS in 12 well plates, and treated with indicated compound from Tables 1-41 or 0.1% DMSO vehicle control for 16 hours. Cells were harvested in Cell Signaling lysis buffer (Cat #9803) with the addition of Roche protease inhibitor tablets (Cat #11873580001), and lysates clarified by microcentrifugation. Proteins were separated by SDS-PAGE, and transferred onto nitrocellulose membranes using an Invitrogen iBlot system. Immunoblotting was performed for BRaf (Santa Cruz Cat #9002), CRAF (BD Cat #610151), and pErk (Cell Signaling Cat #9106). GAPDH (Cell Signaling Cat #2118) was used as a loading control. Quantification was carried out using the BioRad Image Lab 5 software.
6. BRaf In-Cell Western Cellular Degradation Assay (A375 Cells) of Table 7
A375 cells were cultured in ATCC DMEM+10% FBS in 96-well plates, and treated with indicated compounds from Tables-43 or 0.1% DMSO vehicle control for 72 hours. Cells were washed with PBS 1×, and affixed to plate using 4% PFA in phosphate buffered saline for 15 minutes; washed 1× and permeabilized using 0.1% Triton-X-100 in PBS for 5 minutes; washed 1× and blocked with LICOR blocker (Cat. #927-50000) for 1 hour. Cells were then incubated with B-Raf antibody (Santa Cruz Cat #9002, Santa Cruz Cat #528) and tubulin antibody (Sigma #T6074) in LICOR blocker for 18 hours. Cells were washed 3× prior to adding secondary antibodies (LICOR cat #926-32210 and 926-68071) and incubated for 1 hour. Cells were washed 3× and imaged using LICOR Odyssey Software.

BRD4 = molecular target: T2, BRD4 (Homo sapiens, UniProt O60885); test: BRD4 Western protocol in 22Rv-1 or VCaP cells; format: cell-based; conditions: 16 hours, western blot
T2 construct: 22Rv-1 or VCaP cells were purchased from ATCC and cultured in Dulbecco's Modified Eagle's Medium; host or cells: 22Rv-1 or VCaP cells
Procedure: 7. BRD4 Western Protocol for Table 8
22Rv-1 or VCaP cells were purchased from ATCC and cultured in Dulbecco's Modified Eagle's Medium (ATCC), supplemented with 10% FBS (ATCC) and Penicillin/Streptomycin (Life Technologies). DMSO control and compound treatments (0.003 μM, 0.01 μM, 0.03 μM and 0.1 μM) were performed in 12-well plates for 16 hours. Cells were harvested, and lysed in RIPA buffer (50 mM Tris pH8, 150 mM NaCl, 1% Tx-100, 0.1% SDS, 0.5% sodium deoxycholate) supplemented with protease and phosphatase inhibitors. Lysates were clarified at 16,000 g for 10 minutes, and protein concentration was determined. Equal amount of protein (20 μg) was subjected to SDS-PAGE analysis and followed by immunoblotting according to standard protocols. The antibodies used were BRD4 (Cell Signaling #13440), and Actin (Sigma #5441). Detection reagents were Clarity Western ECL substrate (Bio-rad #170-5060).

T1 sequence (P15056 whole entry V600E): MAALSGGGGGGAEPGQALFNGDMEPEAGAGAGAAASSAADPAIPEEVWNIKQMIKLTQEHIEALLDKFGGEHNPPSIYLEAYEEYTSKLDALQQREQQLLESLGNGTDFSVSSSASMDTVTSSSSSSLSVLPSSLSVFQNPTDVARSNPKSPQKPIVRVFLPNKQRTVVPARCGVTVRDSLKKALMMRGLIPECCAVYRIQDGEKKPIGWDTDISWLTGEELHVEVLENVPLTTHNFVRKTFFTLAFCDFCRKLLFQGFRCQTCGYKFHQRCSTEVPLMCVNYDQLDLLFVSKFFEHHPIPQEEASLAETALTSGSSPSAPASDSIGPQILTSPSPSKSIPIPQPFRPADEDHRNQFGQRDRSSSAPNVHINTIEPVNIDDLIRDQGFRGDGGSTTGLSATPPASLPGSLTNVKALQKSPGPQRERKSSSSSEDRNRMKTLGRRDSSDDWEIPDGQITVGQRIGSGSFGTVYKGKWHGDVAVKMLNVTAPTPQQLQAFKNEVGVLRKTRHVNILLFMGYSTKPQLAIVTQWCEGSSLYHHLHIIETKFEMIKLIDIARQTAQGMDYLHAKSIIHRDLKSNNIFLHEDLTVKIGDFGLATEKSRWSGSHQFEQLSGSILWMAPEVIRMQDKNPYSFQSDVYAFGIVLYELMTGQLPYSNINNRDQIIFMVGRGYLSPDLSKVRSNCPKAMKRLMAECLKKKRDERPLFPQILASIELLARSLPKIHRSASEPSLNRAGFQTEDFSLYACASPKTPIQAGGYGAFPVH
T1 sequence (Q96SW2 whole entry partner): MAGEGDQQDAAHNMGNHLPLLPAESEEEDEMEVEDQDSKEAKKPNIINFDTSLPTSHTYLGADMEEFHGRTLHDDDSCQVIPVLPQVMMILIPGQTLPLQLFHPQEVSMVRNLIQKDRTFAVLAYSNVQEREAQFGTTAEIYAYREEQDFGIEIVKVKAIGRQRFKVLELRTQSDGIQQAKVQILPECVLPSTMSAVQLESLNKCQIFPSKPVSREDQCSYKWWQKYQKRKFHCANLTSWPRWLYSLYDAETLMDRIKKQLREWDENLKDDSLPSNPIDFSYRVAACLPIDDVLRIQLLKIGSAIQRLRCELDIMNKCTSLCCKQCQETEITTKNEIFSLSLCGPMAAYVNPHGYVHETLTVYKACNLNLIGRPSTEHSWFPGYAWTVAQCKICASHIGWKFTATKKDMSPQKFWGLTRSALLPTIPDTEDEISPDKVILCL

| DC50 (BRaf) [nM] | Dmax (BRaf) [%] | DC50 (BRD4) [nM] | Dmax (BRD4) [%] | Structure (SMILES) |
| --- | --- | --- | --- | --- |
|  |  | ≥ 100 | 50 to 75 | Cc1sc2c(c1C)C(c1ccc(Cl)cc1)=N[C@@H](CC(=O)Nc1ccc(OCCOCCOCCOCCNc3cccc4c3CN([C@H]3CCC(=O)NC3)C4=O)cc1)c1nnc(C)n1-2 [compound 43, 2-((R)-4-(4-chlorophenyl)-2,3,9-trimethyl-6H-thieno[3,2-f][1,2,4]triazolo[4,3-a][1,4]diazepin-6-yl)-N-(4-(2-(2-(2-(2-((1-oxo-2-((R)-6-oxopiperidin-3-yl)isoindolin-4-yl)amino)ethoxy)ethoxy)ethoxy)ethoxy)phenyl)acelamide] |
|  |  | ≥ 100 | < 50 | Cc1sc2c(c1C)C(c1ccc(Cl)cc1)=N[C@@H](CC(=O)Nc1ccc(OCCOCCOCCOCCOc3cccc4c(=O)n(C5CCC(=O)NC5=O)c(C)nc34)cc1)c1nnc(C)n1-2 (stereo partly drawn) [compound 44, 2-((S)-4-(4-chlorophenyl)-2,3,9-trimethyl-6H-thieno[3,2-f][1,2,4]triazolo[4,3-a][1,4]diazepin-6-yl)-N-(4-(2-(2-(2-(2-((3-(2,6-dioxopiperidin-3-yl)-2-methyl-4-oxo-3,4-dihydroquinazolin-8-yl)oxy)ethoxy)ethoxy)ethoxy)ethoxy)phenyl)acetamide] |
| 10 to 100 | 50 to 75 |  |  | O=C1CCC(N2C(=O)c3cc(N4CCN(c5ccc(-n6cc(-c7ccc8c(c7)CC/C8=N\O)c(-c7ccncc7)n6)cc5)CC4)cc(-c4ccccc4)c3C2=O)C(=O)N1 (centres unmarked) [compound 39, (E)-2-(2,6-dioxopiperidin-3-yl)-6-(4-(4-(4-(1-(hydroxyimino)-2,3-dihydro-1H-inden-5-yl)-3-(pyridin-4-yl)-1H-pyrazol-1-yl)phenyl)piperazin-1-yl)-4-phenylisoindoline-1,3-dione] |

Continued, compound first:

| Structure (SMILES) | DC50 (BRaf) [nM] | Dmax (BRaf) [%] | DC50 (BRD4) [nM] | Dmax (BRD4) [%] |
| --- | --- | --- | --- | --- |
| O=C1CCC(N2C(=O)c3ccc(N4CCN(c5ccc(-n6cc(-c7ccc8c(c7)CC/C8=N\O)c(-c7ccncc7)n6)cc5)CC4)c(-c4ccccc4)c3C2=O)C(=O)N1 (centres unmarked) [compound 41, (E)-2-(2,6-dioxopiperidin-3-yl)-5-(4-(4-(4-(1-(hydroxyimino)-2,3-dihydro-1H-inden-5-yl)-3-(pyridin-4-yl)-1H-pyrazol-1-yl)phenyl)piperazin-1-yl)-4-phenylisoindoline-1,3-dione] | 10 to 100 | ≥ 75 |  |  |
| Cc1sc2c(c1C)C(c1ccc(Cl)cc1)=N[C@@H](CC(=O)Nc1ccc(OCCOCCOCCOCCOc3ccc4c(=O)n(C5CCC(=O)NC5=O)c(C)nc4c3)cc1)c1nnc(C)n1-2 (stereo partly drawn) [compound 45, 2-((S)-4-(4-chlorophenyl)-2,3,9-trimethyl-6H-thieno[3,2-f][1,2,4]triazolo[4,3-a][1,4]diazepin-6-yl)-N-(4-(2-(2-(2-(2-((3-(2,6-dioxopiperidin-3-yl)-2-methyl-4-oxo-3,4-dihydroquinazolin-7-yl)oxy)ethoxy)ethoxy)ethoxy)ethoxy)phenyl)acetamide] |  |  | 10 to 100 | ≥ 75 |
| Cc1cc2c(cc1N1CCN(c3ccc(-n4cc(-c5ccc6c(c5)CC/C6=N\O)c(-c5ccncc5)n4)cc3)CC1)C(=O)N(C1CCC(=O)NC1=O)C2=O (centres unmarked) [compound 40, (E)-2-(2,6-dioxopiperidin-3-yl)-5-(4-(4-(4-(1-(hydroxyimino)-2,3-dihydro-1H-inden-5-yl)-3-(pyridin-4-yl)-1H-pyrazol-1-yl)phenyl)pipeiazin-1-yl)-6-methylisoindoline-1,3-dione] | 10 to 100 | ≥ 75 |  |  |
| Cc1c(N2CCN(c3ccc(-n4cc(-c5ccc6c(c5)CC/C6=N\O)c(-c5ccncc5)n4)cc3)CC2)ccc2c1C(=O)N(C1CCC(=O)NC1=O)C2=O (centres unmarked) [compound 42, (E)-2-(2,6-dioxopiperidin-3-yl)-5-(4-(4-(4-(1-(hydroxyimino)-2,3-dihydro-1H-inden-5-yl)-3-(pyridin-4-yl)-1H-pyrazol-1-yl)phenyl)piperazin-1-yl)-4-methylisoindoline-1,3-dione] | 10 to 100 | 50 to 75 |  |  |
